Data taken from PMC6333893, “Exquisite ligand stereoselectivity of a Drosophila juvenile hormone receptor contrasts with its broad agonist repertoire” (The Journal of Biological Chemistry, 2018).
Like-named read-outs stand apart in the source and are kept apart here.

Assays:
[1] = molecular target: T1, Gce (germ cell-expressed), Myc-tagged, in vitro translated (Drosophila melanogaster, UniProt Q9VXW7); test: competition against R,S-[3H]JH III, glass fiber filter; format: binding
T1 sequence (Q9VXW7 271-959): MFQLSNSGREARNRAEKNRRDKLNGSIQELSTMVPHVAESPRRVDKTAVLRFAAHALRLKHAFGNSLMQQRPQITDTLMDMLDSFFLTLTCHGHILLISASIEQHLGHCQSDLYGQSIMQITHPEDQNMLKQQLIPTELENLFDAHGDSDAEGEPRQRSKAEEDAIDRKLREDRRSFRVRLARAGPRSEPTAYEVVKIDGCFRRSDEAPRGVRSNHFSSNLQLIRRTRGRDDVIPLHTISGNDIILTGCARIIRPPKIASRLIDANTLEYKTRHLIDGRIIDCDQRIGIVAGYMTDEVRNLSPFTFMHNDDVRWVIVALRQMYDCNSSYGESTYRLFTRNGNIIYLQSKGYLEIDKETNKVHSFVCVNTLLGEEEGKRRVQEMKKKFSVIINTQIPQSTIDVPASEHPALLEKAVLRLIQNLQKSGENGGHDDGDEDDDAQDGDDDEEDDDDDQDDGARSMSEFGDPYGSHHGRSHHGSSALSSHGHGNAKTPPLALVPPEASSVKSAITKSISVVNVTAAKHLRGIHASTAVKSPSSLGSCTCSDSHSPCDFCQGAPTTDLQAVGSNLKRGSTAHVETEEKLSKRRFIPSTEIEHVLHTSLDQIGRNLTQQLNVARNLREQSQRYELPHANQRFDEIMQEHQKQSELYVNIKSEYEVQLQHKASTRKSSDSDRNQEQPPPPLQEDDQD

[2] = molecular target: T2, endogenous Gce in Drosophila S2 cells (JHRE-luc) (Drosophila melanogaster, UniProt Q9VXW7); test: JHRE-luc reporter activation in S2 cells; format: cell-based; details: 8 h, transfected Tai, agonist
T2 construct: endogenous Gce of S2 cells, transfected D. melanogaster Tai and JHRE-luc reporter

[3] = read-out: Affinity of ligand binding to Gce (Ki)^a

T2 sequence (Q9VLD9 1-2026 partner, one chain of several): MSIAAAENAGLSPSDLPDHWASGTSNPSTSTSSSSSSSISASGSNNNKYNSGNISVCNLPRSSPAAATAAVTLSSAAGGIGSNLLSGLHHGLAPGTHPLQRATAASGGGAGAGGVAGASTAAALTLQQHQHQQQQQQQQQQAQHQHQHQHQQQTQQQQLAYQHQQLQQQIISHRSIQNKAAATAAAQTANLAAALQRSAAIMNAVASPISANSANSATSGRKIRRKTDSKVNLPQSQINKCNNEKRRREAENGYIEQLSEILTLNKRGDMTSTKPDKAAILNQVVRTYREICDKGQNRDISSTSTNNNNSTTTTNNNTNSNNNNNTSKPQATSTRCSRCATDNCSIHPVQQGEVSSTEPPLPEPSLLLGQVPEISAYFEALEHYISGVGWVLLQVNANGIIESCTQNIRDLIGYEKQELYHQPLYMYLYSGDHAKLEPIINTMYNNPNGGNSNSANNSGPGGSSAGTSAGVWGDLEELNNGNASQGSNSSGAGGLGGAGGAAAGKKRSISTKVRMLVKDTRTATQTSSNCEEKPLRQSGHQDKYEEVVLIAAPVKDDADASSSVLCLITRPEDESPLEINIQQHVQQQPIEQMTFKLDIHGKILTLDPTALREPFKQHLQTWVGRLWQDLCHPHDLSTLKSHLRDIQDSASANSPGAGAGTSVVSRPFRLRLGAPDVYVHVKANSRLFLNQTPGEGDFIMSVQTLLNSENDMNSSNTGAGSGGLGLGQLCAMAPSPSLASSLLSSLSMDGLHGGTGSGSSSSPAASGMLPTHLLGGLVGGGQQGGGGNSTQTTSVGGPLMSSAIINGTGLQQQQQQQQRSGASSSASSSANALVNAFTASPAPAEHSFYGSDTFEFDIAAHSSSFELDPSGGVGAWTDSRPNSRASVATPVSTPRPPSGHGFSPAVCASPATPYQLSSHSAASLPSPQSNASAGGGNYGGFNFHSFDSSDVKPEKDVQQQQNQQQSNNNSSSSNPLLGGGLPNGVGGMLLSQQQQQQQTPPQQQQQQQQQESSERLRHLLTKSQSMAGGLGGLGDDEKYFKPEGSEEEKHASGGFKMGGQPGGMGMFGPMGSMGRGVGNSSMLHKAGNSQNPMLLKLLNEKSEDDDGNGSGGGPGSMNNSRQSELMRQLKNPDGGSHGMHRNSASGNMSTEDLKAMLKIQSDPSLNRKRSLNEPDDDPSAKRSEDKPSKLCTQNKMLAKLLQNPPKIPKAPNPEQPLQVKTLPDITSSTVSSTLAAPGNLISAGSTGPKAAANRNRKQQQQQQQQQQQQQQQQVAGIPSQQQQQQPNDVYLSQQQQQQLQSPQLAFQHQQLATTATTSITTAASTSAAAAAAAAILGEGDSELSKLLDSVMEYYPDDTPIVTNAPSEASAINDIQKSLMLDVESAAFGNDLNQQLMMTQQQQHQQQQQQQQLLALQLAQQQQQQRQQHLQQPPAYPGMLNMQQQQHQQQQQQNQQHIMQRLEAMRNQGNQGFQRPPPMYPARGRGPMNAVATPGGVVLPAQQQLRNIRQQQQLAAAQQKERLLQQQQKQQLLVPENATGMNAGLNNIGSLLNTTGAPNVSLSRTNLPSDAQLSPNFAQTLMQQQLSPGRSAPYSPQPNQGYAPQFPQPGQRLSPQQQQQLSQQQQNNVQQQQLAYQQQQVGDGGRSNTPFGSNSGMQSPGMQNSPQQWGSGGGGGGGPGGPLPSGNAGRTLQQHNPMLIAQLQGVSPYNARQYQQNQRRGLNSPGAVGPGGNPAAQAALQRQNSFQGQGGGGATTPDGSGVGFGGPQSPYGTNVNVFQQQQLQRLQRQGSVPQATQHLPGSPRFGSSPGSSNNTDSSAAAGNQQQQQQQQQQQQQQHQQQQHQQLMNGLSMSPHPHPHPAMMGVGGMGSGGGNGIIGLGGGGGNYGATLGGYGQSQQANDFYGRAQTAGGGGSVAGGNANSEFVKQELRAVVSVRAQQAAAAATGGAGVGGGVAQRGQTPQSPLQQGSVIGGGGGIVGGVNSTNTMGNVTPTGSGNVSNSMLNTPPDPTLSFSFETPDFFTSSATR

| Structure (SMILES) | Ki ([1]; read-out: Ki) | EC50 ([2]; read-out: EC50) | Ki [1, 3] | also measured |
| --- | --- | --- | --- | --- |
| COC(=O)/C=C(\C)CCC1OC1(C)CCC1OC1(C)C (centres unmarked) [JHB3] | 83.3 ± 40.8 nM | 110 ± 10 nM | – | – |
| COC(=O)/C=C(\C)CC/C=C(\C)CCC=C(C)C [MF] | 89.8 ± 26.7 nM | 4430 ± 950 nM | – | – |
| COC(=O)/C=C(\C)CC/C=C(\C)CCC1OC1(C)C (centres unmarked) [R,S-JH III] | 11 ± 2.2 nM | – | – | EC50 ([2]; racemic compound, read-out: EC50): 210 ± 140 nM |
| CC/C(=C/CC/C(C)=C/C(=O)OC)CC[C@H]1O[C@]1(C)CC [R-(E,Z)-JH I] | – | – | 479 nM | – |
| CC/C(=C\CC/C(C)=C\C(=O)OC)CC[C@H]1O[C@]1(C)CC [R-(Z,E)-JH I] | – | – | 2400 nM | – |
| CC/C(=C/CC/C(C)=C\C(=O)OC)CC[C@H]1O[C@]1(C)CC [R-(Z,Z)-JH I] | – | – | 28900 nM | – |
| COC(=O)/C=C(\C)CC/C=C(\C)CC[C@H]1OC1(C)C [R-JH III] | 4.8 ± 1.3 nM | 930 ± 380 nM | – | – |
| CC/C(=C\CC/C(C)=C/C(=O)OC)CC[C@H]1O[C@@]1(C)CC [S-(E,E)-JH I] | 13.8 ± 5.1 nM | 370 ± 220 nM | – | – |
| CC/C(=C/CC/C(C)=C/C(=O)OC)CC[C@H]1O[C@@]1(C)CC [S-(E,Z)-JH I] | – | – | 447 nM | – |
| CC/C(=C\CC/C(C)=C\C(=O)OC)CC[C@H]1O[C@@]1(C)CC [S-(Z,E)-JH I] | – | – | 614 nM | – |
| CC/C(=C/CC/C(C)=C\C(=O)OC)CC[C@H]1O[C@@]1(C)CC [S-(Z,Z)-JH I] | – | – | 22600 nM | – |
| COC(=O)/C=C(\C)CC/C=C(\C)CC[C@@H]1OC1(C)C [S-JH III] | 38.3 ± 5.2 nM | – | – | EC50 ([2]; unreliable (no saturation reached)): 4460 ± 2950 nM |
| CCOC(=O)NCCOc1ccc(CC2CCCCC2O)cc1 (centres unmarked) [W330, Ethyl N-{2-{4-[(2-hydroxycyclohexyl)methyl]phenoxy}ethyl}carbamate] | 17.4 ± 5.7 nM | 5.42 ± 0.41 nM | – | – |
| CC/C(C)=C/CC/C(=C/CC/C(C)=C/C(=O)OC)CC [deoxy-JH I, methyl (2E,6E,10E)-7-ethyl-3,11-dimethyltrideca-2,6,10-trienoate] | 143 ± 45 nM | – | – | – |
| CCOC(=O)NCCOc1ccc(Oc2ccccc2)cc1 [fenoxycarb, ethyl N-[2-(4-phenoxyphenoxy)ethyl]carbamate] | 2.8 ± 1.1 nM | 2.29 ± 0.65 nM | – | – |
